From patent publication US5691311A (Biogen, Inc., priority 1995, dated 1997)
Where two headings read alike, the source gives them in different places.

Assays:
[1] = target: T1, human α-thrombin (Homo sapiens, UniProt P00734); assay: Thrombin-catalyzed hydrolysis of Spectrozyme TH; assay type: biochemical; details: for Ki: method of Example 9, Spectrozyme TH; for inhibitory activity versus linker length: FIG. 6
T1 construct: proteolysis of the B-chain of α-thrombin; human α-thrombin-catalyzed hydrolysis of Spectrozyme TH
Method: The thrombin-catalyzed rate was monitored in a Cary 19 spectrophotometer at 405 nm and recorded continuously as a function of time. Kinetics were performed at room temperature (25°±1°C.) in a 0.05M Tris, pH 7.5, 0.1M NaCl buffer.
For a typical enzyme reaction, 1.0 ml of buffer was added to both the sample and reference cuvettes. […] Immediately following addition of substrate, the contents of the sample cuvette were mixed by use of a plastic pipette. The reaction was monitored spectrophotometrically for 5-15 minutes.
Initial rate velocities at each substrate concentration were expressed as moles Spectrozyme TH hydrolyzed/sec/mole thrombin. This was determined during the initial linear phase of the reaction (≤15% total hydrolysis of substrate) by measuring the slope of the hydrolytic reaction. Lineweaver-Burke plots were constructed accordingly, by plotting the inverse of the initial velocity against the inverse of the substrate concentration.

[2] = target: T1, human α-thrombin; assay: Cleavage of Hirulogs by thrombin (chromogenic and HPLC assays); assay type: biochemical; details: turnover rate of Hirulog hydrolysis by thrombin
Method: Aliquots (0.975 ml) of the reaction mixtures were removed at various times and mixed in a cuvette with 0.025 ml Spectrozyme TH (11 μM final concentration), a chromogenic substrate. The initial rate of reaction was determined and, based on control mixtures containing thrombin in the absence of Hirulog, the % inhibition was calculated.
An alternate method employed reverse-phase HPLC separation of aliquots from a Hirulog/thrombin reaction mixture. In this assay we added human α-thrombin (0.25 μM final concentrations) to a reaction vessel containing one of the above Hirulogs (12.5 μM final concentration). Aliquots (50 μl) were removed both prior to and at various times following the addition of thrombin. The aliquots were either flash frozen of injected directly onto the HPLC column. The HPLC system employed an Applied Biosystems Liquid Chromatography System equipped with an Aquapore C, column (0.46×10 cm). The column was equilibrated in 70% solvent A (0.1% TFA in water) and 30% solvent B (0.085% TFA/70% acetonitrile) and developed with a linear gradient of from 30 to 50% solvent B over 30 minutes at a flow rate of 1 ml/minute. The effluent stream was monitored at 214 nm. Peptide concentrations were determined by measurement of peak heights.
Both of the above-described assays allow determination of the rate of Hirulog hydrolysis by thrombin (expressed in M/min) and turnover rate (kcat; expressed in min^-1).

[3] = system: human α-thrombin (1.6 nM chromogenic assay; 0.25 μM HPLC assay); assay: human α-thrombin in 20 mM Tris-HCl pH 7.4 containing 0.1M NaCl
[4] = system: APTT; assay: Systemic anticoagulant effect (APTT) of antithrombotic agents; assay type: in vivo, baboon; details: dose not given
Excerpt: We also tested the effects of a variety of other agents on template bleeding time in the baboon, as well as on systemic anticoagulant effects (as measured by APTT).

[5] = system: platelet-dependent thrombosis; details: collagen-coated surfaces, reported values; cited from earlier work
[6] = system: hemostasis; assay: Template bleeding time; assay type: in vivo, baboon
[7] = system: human α-thrombin; assay: human α-thrombin in 20 mM Tris-HCl pH 7.4 containing 0.1M NaCl

Compound: CC[C@H](C)[C@H](NC(=O)[C@H](CCC(=O)O)NC(=O)[C@H](CCC(=O)O)NC(=O)[C@H](Cc1ccccc1)NC(=O)[C@H](CC(=O)O)NC(=O)CNC(=O)[C@H](CC(N)=O)NC(=O)CNC(=O)CNC(=O)CNC(=O)CNC(=O)CNC(=O)CN(C)C(=O)[C@H](CCCNC(=N)N)NC(=O)[C@@H]1CCCN1C(=O)[C@H](N)Cc1ccccc1)C(=O)N1CCC[C@H]1C(=O)N[C@@H](CCC(=O)O)C(=O)N[C@@H](CCC(=O)O)C(=O)N[C@@H](Cc1ccc(O)cc1)C(=O)N[C@@H](CC(C)C)C(=O)O [Hirulog-10]
- inhibition of thrombin-catalyzed hydrolysis of Spectrozyme TH (in words) [1]: poor inhibitors
- Ki ([1]; Ki): > 2000 nM
- kcat [2]: 0.167 s⁻¹

Compound: CC[C@H](C)[C@H](NC(=O)[C@H](CCC(=O)O)NC(=O)[C@H](CCC(=O)O)NC(=O)[C@H](Cc1ccccc1)NC(=O)[C@H](CC(=O)O)NC(=O)CNC(=O)[C@H](CC(N)=O)NC(=O)CNC(=O)CNC(=O)CNC(=O)CNC(=O)[C@@H]1CCCN1C(=O)C[C@H](CCCNC(=N)N)NC(=O)[C@@H]1CCCN1C(=O)[C@H](N)Cc1ccccc1)C(=O)N1CCC[C@H]1C(=O)N[C@@H](CCC(=O)O)C(=O)N[C@@H](CCC(=O)O)C(=O)N[C@@H](Cc1ccc(O)cc1)C(=O)N[C@@H](CC(C)C)C(=O)O [Hirulog-18b]
- Ki ([1]; Ki): 4.6 nM

Compound: H-(D-Phe)-Pro-Arg-Sar-(Gly)5 -Asn-Gly-Asp-Phe-Glu-Glu-Ile-Pro-Glu-Glu-Tyr-Leu-OH
- cleaved bond [3]: Arg-Sar

Compound: CC[C@H](C)[C@H](NC(=O)[C@H](CCC(=O)O)NC(=O)[C@H](CCC(=O)O)NC(=O)[C@H](Cc1ccccc1)NC(=O)[C@H](CC(=O)O)NC(=O)CNC(=O)[C@H](CC(N)=O)NC(=O)CNC(=O)CNC(=O)CNC(=O)CNC(=O)CNC(=O)CNC(=O)CNC(=O)CNC(=O)[C@@H]1CCCN1C(=O)[C@H](CCCNC(=N)N)NC(=O)[C@@H]1CCCN1C(=O)[C@H](N)Cc1ccccc1)C(=O)N1CCC[C@H]1C(=O)N[C@@H](CCC(=O)O)C(=O)N[C@@H](CCC(=O)O)C(=O)N[C@@H](Cc1ccc(O)cc1)C(=O)N[C@@H](CC(C)C)C(=O)O [Hirulog-16]
- inhibitory activity versus linker length [1]: comparable inhibitory activities

Compound: N-acetyl-Gly-Asp-phe-Leu-Ala-Glu-(Gly)3 -Val-Arg-Pro-(Gly)4 -Asn-Gly-Asp-Phe-Glu-Glu-Ile-Pro-Glu-Glu-Tyr-Leu-OH
- cleaved bond [3]: Arg-Pro, minor

Compound: CC[C@H](C)[C@H](NC(=O)[C@H](CCC(=O)O)NC(=O)[C@H](CCC(=O)O)NC(=O)[C@H](Cc1ccccc1)NC(=O)[C@H](CC(=O)O)NC(=O)CNC(=O)[C@H](CC(N)=O)NC(=O)CNC(=O)CNC(=O)CNC(=O)CNC(=O)CNC[C@H](CCCNC(=N)N)NC(=O)[C@@H]1CCCN1C(=O)[C@H](N)Cc1ccccc1)C(=O)N1CCC[C@H]1C(=O)N[C@@H](CCC(=O)O)C(=O)N[C@@H](CCC(=O)O)C(=O)N[C@@H](Cc1ccc(O)cc1)C(=O)N[C@@H](CC(C)C)C(=O)O [Hirulog-19]
- Ki ([1]; Ki): 20 nM

Compound: N=C(N)c1ccccc1 [Benzamidine, benzamidine]
- APTT (% control) [4]: 757.6 % control
- ED50 [5]: 3000 nmol/kg/min
- Bleeding Time ([6]; dose not given): 10 min

Compound: N-acetyl-Gly-Asp-phe-Leu-Ala-Glu-(Gly)3 -Val-Arg-Pro-(Gly)4 -Asn-Gly-Asp-Phe-Glu-Glu-Ile-Pro-Glu-Glu-Tyr-Leu-OH [Hirulog-33]
- Ki ([1]; read-out: Ki): 3.6 nM
- kcat [2]: 0.000933 s⁻¹

Compound: H-(D-Phe)-Pro-(β-homoarginine)-Pro-(Gly)4 -Asn-Gly-Asp-Phe-Glu-Glu-Ile-Pro-Glu-Glu-Tyr-Leu-OH
- not cleaved [7]: kcat <0.01 min^-1; resistant to thrombin cleavage

Compound: CC[C@H](C)[C@H](NC(=O)[C@H](CCC(=O)O)NC(=O)[C@H](CCC(=O)O)NC(=O)[C@H](Cc1ccccc1)NC(=O)[C@H](CC(=O)O)NC(=O)CNC(=O)[C@H](CC(N)=O)NC(=O)CNC(=O)CNC(=O)CNC(=O)CNC(=O)CNC(=O)C[C@H](CCCNC(=N)N)NC(=O)[C@@H]1CCCN1C(=O)[C@H](N)Cc1ccccc1)C(=O)N1CCC[C@H]1C(=O)N[C@@H](CCC(=O)O)C(=O)N[C@@H](CCC(=O)O)C(=O)N[C@@H](Cc1ccc(O)cc1)C(=O)N[C@@H](CC(C)C)C(=O)O [Hirulog-18a]
- Ki ([1]; Ki): 7.4 nM

Compound: CC[C@H](C)[C@H](NC(=O)[C@H](CCC(=O)O)NC(=O)[C@H](CCC(=O)O)NC(=O)[C@H](Cc1ccccc1)NC(=O)[C@H](CC(=O)O)NC(=O)CNC(=O)[C@H](CC(N)=O)NC(=O)CNC(=O)CNC(=O)[C@@H]1CCCN1C(=O)[C@H](CCCNC(=N)N)NC(=O)[C@@H]1CCCN1C(=O)[C@H](N)Cc1ccccc1)C(=O)N1CCC[C@H]1C(=O)N[C@@H](CCC(=O)O)C(=O)N[C@@H](CCC(=O)O)C(=O)N[C@@H](Cc1ccc(O)cc1)C(=O)N[C@@H](CC(C)C)C(=O)O [Hirulog-13]
- reduction of activity ([1]; 18 Å linker length, versus Hirulogs-8, -15, -16): more than 10 fold

Compound: H-(D-Phe)-Pro-(β-homoarginine)-Val-(Gly)4 -Asn-Gly-Asp-Phe-Glu-Glu-Ile-Pro-Glu-Glu-Tyr-Leu-OH
- not cleaved [7]: kcat <0.01 min^-1; resistant to thrombin cleavage

Compound: NC(N)=NCCC[C@H](NC(=O)[C@@H]1CCCN1C(=O)[C@H](N)Cc1ccccc1)C(=O)CCl [PPACK, D-Phe-Pro-Arg-CHCl2]
- APTT (% control) [4]: 287.9 % control
- ED50 [5]: 75 nmol/kg/min
- Bleeding Time ([6]; dose not given): 12 min

Compound: CC1CNc2c(cccc2S(=O)(=O)N[C@@H](CCCNC(=N)N)C(=O)N2CC[C@@H](C)C[C@@H]2C(=O)O)C1 (stereo partly drawn) [Argipidine (MD805), argatroban (argipidine)]
- APTT (% control) [4]: > 900 % control
- ED50 [5]: 550 nmol/kg/min
- Bleeding Time ([6]; in vivo): > 30 min

Compound: CC[C@H](C)[C@H](NC(=O)[C@H](CCC(=O)O)NC(=O)[C@H](CCC(=O)O)NC(=O)[C@H](Cc1ccccc1)NC(=O)[C@H](CC(=O)O)NC(=O)CNC(=O)[C@H](CC(N)=O)NC(=O)CNC(=O)CNC(=O)CNC(=O)CNC(=O)CNC(=O)[C@H](CCCNC(=N)N)NC(=O)[C@@H]1CCCN1C(=O)[C@H](N)Cc1ccccc1)C(=O)N1CCC[C@H]1C(=O)N[C@@H](CCC(=O)O)C(=O)N[C@@H](CCC(=O)O)C(=O)N[C@@H](Cc1ccc(O)cc1)C(=O)N[C@@H](CC(C)C)C(=O)O [Hirulog-32]
- inhibition of thrombin-catalyzed hydrolysis of Spectrozyme TH (in words) [1]: poor inhibitors
- Ki ([1]; Ki): > 2000 nM
- kcat [2]: 8.92 s⁻¹

Compound: H-(D-Phe)-Pro-Arg-Pro-(Gly)4 -Asn-Gly-Asp-Phe-Glu-Glu-Ile-Pro-Glu-Glu-Tyr-Leu-OH
- cleaved bond [3]: Arg-Pro, minor

Compound: CC[C@H](C)[C@H](NC(=O)[C@H](CCC(=O)O)NC(=O)[C@H](CCC(=O)O)NC(=O)[C@H](Cc1ccccc1)NC(=O)[C@H](CC(=O)O)NC(=O)CNC(=O)[C@H](CC(N)=O)NC(=O)CNC(=O)CNC(=O)CNC(=O)CNC(=O)CNC(=O)CNC(=O)[C@@H]1CCCN1C(=O)[C@H](CCCNC(=N)N)NC(=O)[C@@H]1CCCN1C(=O)[C@H](N)Cc1ccccc1)C(=O)N1CCC[C@H]1C(=O)N[C@@H](CCC(=O)O)C(=O)N[C@@H](CCC(=O)O)C(=O)N[C@@H](Cc1ccc(O)cc1)C(=O)N[C@@H](CC(C)C)C(=O)O [Hirulog-15]
- inhibitory activity versus linker length [1]: comparable inhibitory activities

Compound: CC[C@H](C)[C@H](NC(=O)[C@H](CCC(=O)O)NC(=O)[C@H](CCC(=O)O)NC(=O)[C@H](Cc1ccccc1)NC(=O)[C@H](CC(=O)O)NC(=O)CNC(=O)[C@H](CC(N)=O)NC(=O)CNC(=O)CNC(=O)CNC(=O)CNC(=O)[C@@H](NC(=O)C[C@H](CCCNC(=N)N)NC(=O)[C@@H]1CCCN1C(=O)[C@H](N)Cc1ccccc1)C(C)C)C(=O)N1CCC[C@H]1C(=O)N[C@@H](CCC(=O)O)C(=O)N[C@@H](CCC(=O)O)C(=O)N[C@@H](Cc1ccc(O)cc1)C(=O)N[C@@H](CC(C)C)C(=O)O [Hirulog-18c]
- Ki ([1]; Ki): 205 nM

Compound: H-(D-Phe)-Pro-Arg-(Gly)5 -Asn-Gly-Asp-Phe-Glu-Glu-Ile-Pro-Glu-Glu-Tyr-Leu-OH
- cleaved bond [3]: Arg-Gly
